Some test systems named below: 786-0; A498; CAKI-1; CCRF-CEM; COLO 205; EKVX; HCC 2998; HCT-116; KM12; MDA-MB-231; NCI-H522; NCI/ADR-RES; SF-295; SN12C; SNB-75; SR; T47D; UACC-257; UO-31; MCF7.
What all share (experiment): growth of human tumour cells (NCI), 48 h

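These data come from cells grown in 96-well plates and exposed to compound for 48 hours at five concentrations. GI50 is the concentration that inhibits growth by half.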 Activity calls are given as the source filed them. Cut-off read from the data, not from the text of the source: active = GI50 up to about 1.1 µM and inactive = higher.

Consider eleven compounds from ChEMBL document CHEMBL1201862, “PubChem BioAssay data set” (2004).

Regarding `Brc1ccc2c(c1)C1=C(CO2)Cc2ccccc2O1`, the GI50 with 786-0 is 22.7 µM (inactive); in the test on A498 it was 27.4 µM (inactive); in the test with CAKI-1, 18.2 µM (inactive); with CCRF-CEM it was 39.4 µM (inactive); in the test with COLO 205, 17.4 µM (inactive); in the test with EKVX, 20.9 µM (inactive). For the same compound, the GI50 in the test with HCC 2998 was 17.2 µM (inactive); with HCT-116 it was 16.4 µM (inactive); in the test with KM12, 19 µM (inactive); in the test on MDA-MB-231, 16.4 µM (inactive); in the test with NCI-H522 it was 19.7 µM (inactive); with NCI/ADR-RES, 23 µM (inactive). The GI50 was 18.1 µM (inactive) in the test on SF-295; 18.8 µM (inactive) in the test on SN12C; 22 µM (inactive) in the test with SNB-75; 36.2 µM (inactive) with SR; 13.1 µM (inactive) in the test on T47D; 17.9 µM (inactive) in the test on UACC-257. Further, in the test with UO-31, the GI50 is 16.5 µM (inactive).
`COC(=O)c1c(C)cccc1CC1Cc2c(C)cccc2C1=O` (stereo not given): the GI50 was 32.4 µM (inactive) with 786-0; 22.6 µM (inactive) in the test on A498; 33.4 µM (inactive) in the test on CAKI-1; 23 µM (inactive) in the test on CCRF-CEM; 21.2 µM (inactive) in the test on COLO 205; 33.7 µM (inactive) in the test with EKVX. For the same compound, the GI50 is 27.9 µM (inactive) in the test on HCC 2998; 25.9 µM (inactive) with HCT-116; 20.1 µM (inactive) with KM12; 32.4 µM (inactive) in the test on MDA-MB-231; 13.2 µM (inactive) with NCI-H522; 19.9 µM (inactive) in the test on NCI/ADR-RES. Further, the GI50 with SF-295 is 32.8 µM (inactive); in the test with SN12C, 43.4 µM (inactive); in the test on SNB-75, 29.7 µM (inactive); in the test on T47D, 27.5 µM (inactive); in the test on UACC-257, 27.8 µM (inactive); with UO-31, 16.9 µM (inactive).
Consider `C/C=C\C(CC(=O)O)CN1CCC2=C(C1)C(S(=O)(=O)C(F)(F)F)c1ccccc12` (stereo not given), for which the GI50 in the test with 786-0 is > 100 µM (inactive); with A498, > 100 µM (inactive); in the test on CAKI-1, > 100 µM (inactive); with CCRF-CEM, > 10 µM (inactive); in the test on COLO 205, > 100 µM (inactive); with EKVX, > 100 µM (inactive). Further, the GI50 in the test with HCC 2998, with HCT-116, in the test on KM12, in the test with MCF7, in the test with MDA-MB-231 and with NCI-H522 was > 100 µM (inactive) throughout. Moreover, the GI50 with NCI/ADR-RES, with SF-295, in the test with SNB-75, with SR, in the test with UACC-257 and with UO-31 was > 100 µM (inactive) each time.
Take `Cc1ccc(-n2cc(-c3ccc(Cl)cc3)c3c2N=CN2N=C(c4ccco4)NC32)cc1` (stereo not given): the GI50 in the test on 786-0 was 4.67 µM (inactive); in the test on A498, 4.22 µM (inactive); in the test on CAKI-1 it was 10.1 µM (inactive); in the test on CCRF-CEM it was 21 µM (inactive); with COLO 205 it was 9.18 µM (inactive); in the test with EKVX, 17.7 µM (inactive). In addition, the GI50 is > 100 µM (inactive) with HCC 2998; 7.05 µM (inactive) in the test on HCT-116; 23.7 µM (inactive) with MCF7; 5 µM (inactive) in the test with MDA-MB-231; 15.8 µM (inactive) in the test on NCI-H522; 7.5 µM (inactive) in the test with NCI/ADR-RES. For the same compound, the GI50 in the test on SF-295 was 6.11 µM (inactive); in the test with SN12C, 3.62 µM (inactive); in the test with SNB-75, 4.75 µM (inactive); in the test on SR it was 0.78 µM (active); with UACC-257, > 100 µM (inactive); with UO-31, 5.05 µM (inactive).
Regarding `COc1ccc(C2=CN3CCC[C@H]3C=C2c2cc(O)c(OC)c(OC)c2)cc1OC`, the GI50 with 786-0 is 0.00371 µM (active); in the test with A498 it was 0.005 µM (active); with CAKI-1, 0.00382 µM (active); with CCRF-CEM, 0.0033 µM (active); in the test with COLO 205, 0.0115 µM (active); in the test with EKVX, 0.00608 µM (active). Also, the GI50 in the test with HCC 2998 is 0.00482 µM (active); with HCT-116, 0.00198 µM (active); with KM12, 0.00337 µM (active); in the test on MCF7, 0.005 µM (active); in the test with MDA-MB-231 it was 0.00631 µM (active); in the test with NCI-H522, 0.00418 µM (active). For the same compound, the GI50 in the test on SF-295 is 0.00446 µM (active); with SN12C it was 0.00403 µM (active); in the test on SNB-75 it was 0.00227 µM (active); in the test with SR it was 0.00394 µM (active); in the test with T47D, 0.00371 µM (active); in the test on UACC-257, 0.00646 µM (active). Moreover, the GI50 in the test on UO-31 was 0.0108 µM (active).
Regarding `C=C1C(C)C2C(Cc3ccccc3)NC(=O)C23OC(=O)/C=C\CC(=O)CCC(C)C/C=C/C3C1O` (stereo not given), the GI50 in the test with 786-0 is 0.438 µM (active); in the test on A498 it was 1.37 µM (inactive); in the test on CAKI-1, 0.421 µM (active); in the test with COLO 205 it was 1.34 µM (inactive); in the test on EKVX, 2.48 µM (inactive); in the test on HCC 2998 it was 6.19 µM (inactive). In addition, the GI50 in the test on HCT-116 was 2.54 µM (inactive); with KM12, 2.88 µM (inactive); in the test with NCI-H522, 0.859 µM (active); with SF-295, 2.54 µM (inactive); in the test with SN12C, 1.93 µM (inactive); with SNB-75, 0.413 µM (active). Also, the GI50 with T47D is 0.635 µM (active); in the test with UACC-257 it was 1.36 µM (inactive); in the test on UO-31, 0.512 µM (active).
Regarding `Cc1cccc2oc3c(c(=O)c12)CC(O)C(C)(C)O3` (stereo not given), the GI50 in the test with 786-0 is > 100 µM (inactive); in the test with A498, > 100 µM (inactive); in the test with CAKI-1, > 100 µM (inactive); with CCRF-CEM it was 28.2 µM (inactive); in the test on COLO 205 it was > 100 µM (inactive); in the test on EKVX, > 100 µM (inactive). Further, the GI50 with HCC 2998 is > 100 µM (inactive); with HCT-116 it was 45.8 µM (inactive); in the test with KM12, > 100 µM (inactive); with MCF7 it was > 100 µM (inactive); in the test with NCI-H522, 35.9 µM (inactive); in the test with NCI/ADR-RES it was 79.1 µM (inactive). The GI50 in the test on SF-295 was > 100 µM (inactive); in the test on SN12C it was > 100 µM (inactive); with SR, 56.1 µM (inactive); with T47D it was > 100 µM (inactive); in the test on UACC-257, > 100 µM (inactive); in the test on UO-31 it was > 100 µM (inactive).
As for `Cc1cc(CC(O)(C(F)(F)F)C(F)(F)F)cc(CC(O)(C(F)(F)F)C(F)(F)F)n1`, the GI50 is 2.29 µM (inactive) in the test with 786-0; 2.76 µM (inactive) in the test on A498; > 100 µM (inactive) with CAKI-1; 3.21 µM (inactive) with CCRF-CEM; 1.87 µM (inactive) in the test on COLO 205; 2.89 µM (inactive) in the test with EKVX. The GI50 with HCC 2998 was 4.23 µM (inactive); with HCT-116, 2.34 µM (inactive); with KM12 it was 2.27 µM (inactive); in the test with MDA-MB-231 it was 3.23 µM (inactive); with NCI-H522, 2.36 µM (inactive); with NCI/ADR-RES, 1.87 µM (inactive). In addition, the GI50 in the test with SF-295 is 3.06 µM (inactive); in the test on SN12C, 3.1 µM (inactive); in the test on SNB-75 it was 2.31 µM (inactive); in the test on SR, 4.08 µM (inactive); in the test on T47D, 2.67 µM (inactive); with UACC-257, 2.89 µM (inactive). Also, the GI50 with UO-31 was 2.05 µM (inactive).
As for `CCOC(=O)Cn1nnc2cc(Nc3nc4ccccc4nc3C(=O)OCC)ccc21`, the GI50 is 67 µM (inactive) in the test with 786-0; 46.1 µM (inactive) in the test with A498; > 100 µM (inactive) with CAKI-1; > 100 µM (inactive) with CCRF-CEM; > 100 µM (inactive) in the test with COLO 205; 33.7 µM (inactive) in the test with EKVX. In addition, the GI50 with HCC 2998 was > 100 µM (inactive); with HCT-116, > 100 µM (inactive); with KM12 it was > 100 µM (inactive); in the test on MCF7, > 100 µM (inactive); with NCI-H522, > 100 µM (inactive); in the test with NCI/ADR-RES, 64.9 µM (inactive). The GI50 with SF-295 was 26.4 µM (inactive); with SN12C it was > 100 µM (inactive); in the test with SNB-75 it was 4.21 µM (inactive); in the test on SR it was > 100 µM (inactive); with T47D, > 100 µM (inactive); with UACC-257 it was > 100 µM (inactive). Further, the GI50 in the test on UO-31 is 2 µM (inactive).
Consider `CC(=O)/C=C1\Nc2ccc([N+](=O)[O-])cc2N\C1=C/C(C)=O`, for which the GI50 was 58.1 µM (inactive) in the test with 786-0; 25.4 µM (inactive) in the test on A498; 58.2 µM (inactive) in the test with CAKI-1; 17.2 µM (inactive) in the test with CCRF-CEM; 58.2 µM (inactive) in the test on COLO 205; 42.4 µM (inactive) with EKVX. For the same compound, the GI50 in the test on HCT-116 was 28.8 µM (inactive); in the test on KM12, 34.3 µM (inactive); in the test on MDA-MB-231, 92.5 µM (inactive); in the test on NCI-H522, 16 µM (inactive); in the test on NCI/ADR-RES, 30 µM (inactive); in the test on SF-295, 42.2 µM (inactive). The GI50 in the test with SN12C is 28.7 µM (inactive); in the test with SNB-75 it was > 100 µM (inactive); with SR, 17.9 µM (inactive); in the test with T47D, 33.8 µM (inactive); in the test on UACC-257 it was 21.9 µM (inactive); in the test with UO-31, > 100 µM (inactive).
On to `Nc1ccc(C(=O)Nc2ccccc2N)cc1` [DINALINE], for which the GI50 in the test on 786-0 was > 66.4 µM (inactive); in the test with A498 it was 27.5 µM (inactive); in the test on CAKI-1, 42.8 µM (inactive); in the test with CCRF-CEM, 11.4 µM (inactive); in the test on COLO 205, 17.6 µM (inactive); in the test with EKVX, 66.2 µM (inactive). The GI50 with HCC 2998 is 17.5 µM (inactive); in the test on HCT-116, 14.2 µM (inactive); in the test with KM12, 44.5 µM (inactive); in the test on MCF7 it was 20.9 µM (inactive); with MDA-MB-231, 30.3 µM (inactive); in the test on NCI-H522, 11.1 µM (inactive). For the same compound, the GI50 is 3.21 µM (inactive) with NCI/ADR-RES; 26.1 µM (inactive) in the test on SF-295; 60 µM (inactive) in the test with SN12C; > 36.3 µM (inactive) in the test with SNB-75; 16.3 µM (inactive) with SR; 17.7 µM (inactive) with UACC-257. The GI50 in the test on UO-31 was 42.6 µM (inactive).
